{"source": "patent US20140263071A1", "about": "“METHOD FOR COLLECTING METALS” (CHEMEC OY AB, priority 2011, published 2014)", "assay": "Drilled well water softening and purification (Example 15)", "experimental": "Drilled well sample 1 (DW 1) was nearby Tampere and sample 2 (DW 2) nearby Turku. Samples (100 ml each) were stirred with 1a (1.0 g) for 24 h. The initial and final metal concentrations in solutions of selected metals were determined by using ICP-AES analysis after filtration and results are shown in Table 9.", "note": "Marks after values point to notes of the source that are not given here."}
{"compound": "NCCCCCCCCCCC(O)(P(=O)(O)O)P(=O)(O)O", "note": "[Compound 1a, 11-Amino-1-hydroxyundecane-1,1-diyldiphosphonic acid]", "values": [{"measurement": "Concentration after 1a", "setting": "DW 1 (pH 7.04), Al^3+, initial <0.05 mg/l", "result": "<0.05", "unit": "mg/L"}, {"measurement": "Concentration after 1a", "setting": "DW 1 (pH 7.04), Ca^2+, initial 43.8 mg/l", "result": 0.232, "unit": "mg/L"}, {"measurement": "Concentration after 1a", "setting": "DW 1 (pH 7.04), Cu^2+, initial <0.05 mg/l", "result": "<0.05", "unit": "mg/L"}, {"measurement": "Concentration after 1a", "setting": "DW 1 (pH 7.04), Mg^2+, initial 10.9 mg/l", "result": "<0.1^4) mg/l"}, {"measurement": "Concentration after 1a", "setting": "DW 1 (pH 7.04), Mn^2+, initial 0.095 mg/l", "result": "<0.02^4) mg/l"}, {"measurement": "Concentration after 1a", "setting": "DW 1 (pH 7.04), Na^+, initial 15.2 mg/l", "result": 13.5, "unit": "mg/L"}, {"measurement": "Concentration after 1a", "setting": "DW 1 (pH 7.04), Sr^2+, initial 0.097 mg/l", "result": "<0.02^4) mg/l"}, {"measurement": "Concentration after 1a", "setting": "DW 1 (pH 7.04), Zn^2+, initial 0.044 mg/l", "result": 0.018, "unit": "mg/L"}, {"measurement": "Expulsion [%]", "setting": "DW 1, Ca^2+", "result": 99, "unit": "%"}, {"measurement": "Expulsion [%]", "setting": "DW 1, Mg^2+", "result": "≥ 99^5) %"}, {"measurement": "Expulsion [%]", "setting": "DW 1, Mn^2+", "result": "≥ 79^5) %"}, {"measurement": "Expulsion [%]", "setting": "DW 1, Na^+", "result": 11, "unit": "%"}, {"measurement": "Expulsion [%]", "setting": "DW 1, Sr^2+", "result": "≥ 79^5) %"}, {"measurement": "Expulsion [%]", "setting": "DW 1, Zn^2+", "result": "≥ 59^5) %"}, {"measurement": "Concentration after 1a", "setting": "DW 2 (pH 6.97), Al^3+, initial 0.107 mg/l", "result": "<0.05^4) mg/l"}, {"measurement": "Concentration after 1a", "setting": "DW 2 (pH 6.97), Ca^2+, initial 22.2 mg/l", "result": 0.479, "unit": "mg/L"}, {"measurement": "Concentration after 1a", "setting": "DW 2 (pH 6.97), Cu^2+, initial 0.271 mg/l", "result": "<0.05^4) mg/l"}, {"measurement": "Concentration after 1a", "setting": "DW 2 (pH 6.97), Mg^2+, initial 13.60 mg/l", "result": 0.102, "unit": "mg/L"}, {"measurement": "Concentration after 1a", "setting": "DW 2 (pH 6.97), Mn^2+, initial <0.02 mg/l", "result": "<0.02", "unit": "mg/L"}, {"measurement": "Concentration after 1a", "setting": "DW 2 (pH 6.97), Na^+, initial 19.0 mg/l", "result": 17.3, "unit": "mg/L"}, {"measurement": "Concentration after 1a", "setting": "DW 2 (pH 6.97), Sr^2+, initial 0.113 mg/l", "result": 0.029, "unit": "mg/L"}, {"measurement": "Concentration after 1a", "setting": "DW 2 (pH 6.97), Zn^2+, initial 0.284 mg/l", "result": 0.026, "unit": "mg/L"}, {"measurement": "Expulsion [%]", "setting": "DW 2, Al^3+", "result": "≥ 53^5) %"}, {"measurement": "Expulsion [%]", "setting": "DW 2, Ca^2+", "result": 98, "unit": "%"}, {"measurement": "Expulsion [%]", "setting": "DW 2, Cu^2+", "result": "≥ 82^5) %"}, {"measurement": "Expulsion [%]", "setting": "DW 2, Mg^2+", "result": 99, "unit": "%"}, {"measurement": "Expulsion [%]", "setting": "DW 2, Na^+", "result": 9, "unit": "%"}, {"measurement": "Expulsion [%]", "setting": "DW 2, Sr^2+", "result": 74, "unit": "%"}, {"measurement": "Expulsion [%]", "setting": "DW 2, Zn^2+", "result": 91, "unit": "%"}]}
